Measurements published in publication PMC3877544 (Cell Death & Disease, 2013).

Molecular target: voltage-dependent anion channel 1 (VDAC1) (Rattus norvegicus, UniProt Q9Z2L0)
Assay: microscale thermophoresis with fluorescently labeled purified VDAC1
Format: binding

voltage-dependent anion channel 1 (VDAC1), sequence (Q9Z2L0 2-283): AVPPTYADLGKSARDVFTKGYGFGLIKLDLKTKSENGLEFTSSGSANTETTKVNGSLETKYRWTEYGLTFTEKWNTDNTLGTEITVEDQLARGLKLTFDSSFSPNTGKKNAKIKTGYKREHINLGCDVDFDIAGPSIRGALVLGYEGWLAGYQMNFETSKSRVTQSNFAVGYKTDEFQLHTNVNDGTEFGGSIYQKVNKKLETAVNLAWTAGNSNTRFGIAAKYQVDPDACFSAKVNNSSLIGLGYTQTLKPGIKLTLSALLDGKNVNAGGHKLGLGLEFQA

## C=C(C)[C@@H]1CCC(C)=C[C@H]1c1c(O)cc(CCCCC)cc1O [CBD, cannabidiol]
  Kd: 11.2 ± 6 µM
